Test results: patent US20170307610A1, “COMPOUNDS THAT BIND DYSTROGLYCAN AND USES THEREOF” (OREGON HEALTH & SCIENCE UNIVERSITY, priority 2014, published 2017)

Test system: E3D1cre19 MECs (β1 Int−/− or β1 Int+)
Assay: Laminin internalization in β1 integrin-deleted or re-expressing cells, flow cytometry
Assay type: cell-based, mouse
Source text: The integrin family of ECM receptors is expressed in the DG−/− cell population (MepG-vec and MepL-vec cell lines, FIG. 11A), but are apparently unable to mediate significant laminin internalization alone (FIG. 7B). To directly test the role of integrins in laminin internalization, an MEC cell line containing an engineered β1 integrin (β1 int) deletion, E3D1cre19 (β1 Intl−/−) was used (cre19-vec, FIG. 11A, see Example 10 infra). These β1 int−/− cells were infected with the empty vector retrovirus or with a WT β1 int expressing retrovirus. The re-expression of WT β1 integrin in β1 int−/− cells produced a modest but statistically insignificant change ([…]) in laminin internalization (MFI β1 Intl−=21.4±3; β1 Int+=26.8±1.2; n=6, p=0.17) (FIG. 7D). […] Therefore, although the β1 integrins are not required for the majority laminin internalization, they can enhance it, possibly as co-receptors with DG (Leonoudakis D et al, 2010 supra; Weir M L et al, 2006 supra).
Cell culture—Primary mammary epithelial cells from control or ΔDGK14-Cre mid-pregnant mice were obtained as previously described (Weir et al, 2006 supra). DG-knockout (MEpG and MEpL cells), and WT E3D1 mammary epithelial cells were established as described previously (Weir et al, 2006 supra) from floxed-DG mice. β1 int-knockout (E3D1 cre19) MECs were established from floxed -β1 int primary MECS, as above. MECs were grown in DME/F12, 2% FBS, 10 μg/ml insulin and 5 ng/ml EGF (BD Biosciences, San Jose, Calif., USA). […] These cultures produced >95% astrocytes as determined by staining with GFAP astrocyte marker antibody.
Flow Cytometry—Cells were plated in 12 well plates at 200,000 cells/well. […] Using a BD FACScan flow cytometer (BD Biosciences, San Jose, Calif., USA), 10,000 cells/well were counted, background fluorescence from the cell counts with no added laminin subtracted and the mean fluorescence intensity values reported. […]

“Rhod-Ln: laminin-111 labeled with NHS-rhodamine; dystroglycan binding reagent” was tested. Which “MFI of internalized laminin, β1 Int+ cells” value (WT β1 integrin re-expressed, n=6) did it give?
The value was 26.8±1.2.

What about the “MFI of internalized laminin, β1 Int−/− cells” value (empty vector, n=6) of the same substance?
Its value is 21.4±3.

And the “increase in laminin internalization on re-expression of WT β1 integrin” value (statistically insignificant, p=0.17)?
The value was 20%.
